The subject of the assay is L-FICD generation. Put plainly: Screening of 53 protease inhibitors from a protease library for L-FICD generation. The format is cell-based. From the text: To identify the protease(s) responsible for cleavage of H-FICD in an unbiased manner, we performed a screening of 53 protease inhibitors using a protease library. The best hits associated with the inhibition of L-FICD generation were MDL28170 and PD150606—two calpain inhibitors—along with MMP inhibitors and γ-secretase inhibitors. Calpain is the family of calcium-dependent cytosolic cysteine proteases expressed ubiquitously in mammals and many other organisms (Pfaff, M., Du, X. & Ginsberg, M. H. Calpain cleavage of integrin beta cytoplasmic domains. FEBS Lett 460, 17-22 (1999)), and calpain-dependent cleavages contribute to modulating various cellular functions such as apoptosis, proliferation and migration (Deshpande, R. V. et al. Calpain expression in lymphoid cells. Increased mRNA and protein levels after cell activation. J Biol Chem 270, 2497-2505 (1995). Svensson, L. et al. Calpain 2 controls turnover of LFA-1 adhesions on migrating T lymphocytes. PloS one 5, e15090, doi:10.1371/journal.pone.0015090 (2010).). […] Since calpain is activated by calcium, we examined if calcium signaling could compensate for M-CSF signaling to generate FICDs. In the absence of c-FMS signaling, calcium signaling was able to promote the cleavage of […] in the nucleus, and […] reversed the effect of calcium signaling on L-FICD processing (FIG.10C). […]

MDL28170: the “inhibition of L-FICD generation (hit in screening)” value was “best hits”.

Values taken from patent US20220370463A1, “STABILIZED C-FMS INTRACELLULAR FRAGMENTS (FICD) PROMOTE OSTEOCLAST DIFFERENTIATION AND ARTHRITIC BONE EROSION” (New York Society for the Relief of the Ruptured and …, priority 2019, published 2022).
